Assay results as given in US12583849B2, “KCNT1 inhibitors and methods of use” (Praxis Precision Medicines, Inc., priority 2020, dated 2026).

What follows are compounds tested against T1, KCNT1 (KNa1.1, Slack) (Homo sapiens, UniProt Q5JUK3) (assay: KCNT1-WT-Basal Patch Clamp Assay). Conditions: tetracycline inducible cell line (HEK-TREX); SyncroPatch 384PE automated patch clamp, perforated patch mode, room temperature, step from -80 mV to 0 mV.
T1 construct: expressed in transfected cells; host or cells: HEK-TREX (tetracycline-inducible cell line)
T1 sequence (Q5JUK3 1-1230): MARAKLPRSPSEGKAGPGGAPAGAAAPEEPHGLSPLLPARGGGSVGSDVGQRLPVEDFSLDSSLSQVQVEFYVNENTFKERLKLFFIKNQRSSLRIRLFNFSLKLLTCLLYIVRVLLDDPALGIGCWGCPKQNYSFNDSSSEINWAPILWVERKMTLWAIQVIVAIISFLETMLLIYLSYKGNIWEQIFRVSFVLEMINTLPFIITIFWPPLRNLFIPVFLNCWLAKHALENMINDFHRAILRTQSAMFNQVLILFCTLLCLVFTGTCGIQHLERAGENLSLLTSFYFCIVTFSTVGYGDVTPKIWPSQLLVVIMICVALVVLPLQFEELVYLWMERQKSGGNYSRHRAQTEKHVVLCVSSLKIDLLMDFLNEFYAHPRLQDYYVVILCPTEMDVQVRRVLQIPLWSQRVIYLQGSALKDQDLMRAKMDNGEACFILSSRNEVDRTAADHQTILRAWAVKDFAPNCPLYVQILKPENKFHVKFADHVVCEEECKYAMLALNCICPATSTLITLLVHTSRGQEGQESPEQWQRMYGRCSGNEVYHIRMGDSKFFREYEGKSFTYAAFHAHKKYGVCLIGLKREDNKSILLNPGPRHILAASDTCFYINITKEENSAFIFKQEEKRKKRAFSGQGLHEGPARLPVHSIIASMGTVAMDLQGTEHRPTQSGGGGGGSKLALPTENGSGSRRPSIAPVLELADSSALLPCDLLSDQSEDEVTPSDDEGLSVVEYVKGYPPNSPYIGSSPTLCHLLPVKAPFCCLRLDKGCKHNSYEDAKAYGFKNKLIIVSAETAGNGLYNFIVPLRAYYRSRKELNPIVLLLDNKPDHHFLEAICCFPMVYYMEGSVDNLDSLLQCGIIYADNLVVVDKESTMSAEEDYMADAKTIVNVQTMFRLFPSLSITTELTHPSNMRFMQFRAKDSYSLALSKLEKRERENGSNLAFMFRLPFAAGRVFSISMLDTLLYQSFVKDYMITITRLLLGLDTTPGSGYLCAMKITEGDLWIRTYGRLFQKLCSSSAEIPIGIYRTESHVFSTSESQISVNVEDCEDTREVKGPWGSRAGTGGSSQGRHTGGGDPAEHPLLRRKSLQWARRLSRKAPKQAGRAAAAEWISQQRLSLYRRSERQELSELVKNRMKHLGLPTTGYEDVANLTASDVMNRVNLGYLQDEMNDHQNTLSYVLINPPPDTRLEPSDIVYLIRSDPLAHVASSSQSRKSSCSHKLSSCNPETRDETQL
Type: cell-based
Protocol: KCNT1-WT-Basal—Patch Clamp Assay
Inhibition of KCNT1 (KNa1.1, Slack) was evaluated using a tetracycline inducible cell line (HEK-TREX). Currents were recorded using the SyncroPatch 384PE automated, patch clamp system. Pulse generation and data collection were performed with PatchController384 V1.3.0 and DataController384 V1.2.1 (Nanion Technologies). The access resistance and apparent membrane capacitance were estimated using built-in protocols. Current were recorded in perforated patch mode (10 μM escin) from a population of cells. The cells were lifted, triturated, and resuspended at 800,000 cells/ml. The cells were allowed to recover in the cell hotel prior to experimentation. Currents were recorded at room temperature. The external solution contained the following (in mM): NaCl 105, NMDG 40, KCl 4, MgCl2 1, CaCl2 5 and HEPES 10 (pH=7.4, Osmolarity ˜300 mOsm). The extracellular solution was used as the wash, reference and compound delivery solution. The internal solution contained the following (in mM): NaCl 70, KF 70, KCl 10, EGTA 5, HEPES 5 and Escin 0.01 (pH=7.2, Osmolarity ˜295 mOsm). Escin is made at a 5 mM stock in water, aliquoted, and stored at −20° C. The compound plate was created at 2× concentrated in the extracellular solution. The compound was diluted to 1:2 when added to the recording well. The amount of DMSO in the extracellular solution was held constant at the level used for the highest tested concentration. A holding potential of −80 mV with a 100 ms step to 0 mV was used. Mean current was measured during the step to 0 mV. […] The average mean current from 3 sweeps was calculated and the % inhibition of each compound was calculated. The % Inhibition as a function of the compound concentration was fit with a Hill equation to derive IC50, slope, min and max parameters. If KCNT1 inhibition was less than 50% at the highest tested concentration or if an IC50 could not be calculated, then a percent inhibition was reported in place of the IC50.
In this table, “A” indicates IC50 of less than or equal to 1 μM; “B” indicates inhibition of between 1 μM to 20 μM; and “C” indicates inhibition of greater than or equal to 20 μM.

| Compound | IC50 |
| --- | --- |
| Cc1nc(C)c(C(=O)N[C@@H](C)c2nc(-c3cccc(F)c3)no2)s1 [Compound I-39, (S)—N-(1-(3-(3-fluorophenyl)-1,2,4-oxadiazol-5-yl)ethyl)-2,4-dimethylthiazole-5-carboxamide] | 1000 to 20000 nM |
| C[C@H](NC(=O)C1(C#N)CC1)c1nc(-c2ccnc(C(F)(F)F)c2)no1 [Compound I-32, (S)-1-cyano-N-(1-(3-(2-(trifluoromethyl)pyridin-4-yl)-1,2,4-oxadiazol-5-yl)ethyl)cyclopropane-1-carboxamide] | ≥ 20000 nM |
| Cc1ccccc1C(=O)N[C@@H](C)c1nc(-c2ccnc(C3CC3)c2)no1 [Compound I-83, N-[(1S)-1-[3-(2-cyclopropyl-4-pyridyl)-1,2,4-oxadiazol-5-yl]ethyl]-2-methyl-benzamide] | ≤ 1000 nM |
| CC(C)Oc1cc(-c2noc([C@H](C)NC(=O)C3CCCC3)n2)ccn1 [Compound I-46, (S)—N-(1-(3-(2-isopropoxypyridin-4-yl)-1,2,4-oxadiazol-5-yl)ethyl)cyclopentane-carboxamide] | ≤ 1000 nM |
| C[C@H](NC(=O)c1ccccn1)c1nc(-c2ccnc(C(F)(F)F)c2)no1 [Compound I-7, (S)—N-(1-(3-(2-(trifluoromethyl)pyridin-4-yl)-1,2,4-oxadiazol-5-yl)ethyl)picolinamide] | ≥ 20000 nM |
| C[C@H](NC(=O)C12CCC(CC1)CC2)c1nc(-c2ccnc(C(F)(F)F)c2)no1 [Compound I-59, (S)—N-(1-(3-(2-(trifluoromethyl)pyridin-4-yl)-1,2,4-oxadiazol-5-yl)ethyl)bicyclo[2.2.2]octane-1-carboxamide] | ≤ 1000 nM |
| Cc1nc(C)c(C(=O)N[C@H](C)c2nc(-c3cccc(F)c3)no2)s1 [Compound I-37, (R)—N-(1-(3-(3-fluorophenyl)-1,2,4-oxadiazol-5-yl)ethyl)-2,4-dimethylthiazole-5-carboxamide] | 1000 to 20000 nM |
| C[C@H](NC(=O)[C@@H](C)c1ccccc1)c1nc(-c2ccnc(C(F)(F)F)c2)no1 [Compound I-16, (S)-2-phenyl-N—((S)-1-(3-(2-(trifluoromethyl)pyridin-4-yl)-1,2,4-oxadiazol-5-yl)ethyl)propanamide] | ≤ 1000 nM |
| C[C@H](NC(=O)[C@H]1CC[C@H](C)CC1)c1nc(-c2ccnc(C3CC3)c2)no1 [Compound I-29, (S)—N-(1-(3-(2-cyclopropylpyridin-4-yl)-1,2,4-oxadiazol-5-yl)ethyl)-4-methylcyclohexane-1-carboxamide] | ≤ 1000 nM |
| C[C@H](NC(=O)[C@H]1CC[C@@H](C)CC1)c1nc(-c2ccnc(C(F)(F)F)c2)no1 [Compound I-36, cis-4-methyl-N—((S)-1-(3-(2-(trifluoromethyl)pyridin-4-yl)-1,2,4-oxadiazol-5-yl)ethyl)cyclohexane-1-carboxamide] | ≤ 1000 nM |
| C[C@H](NC(=O)c1ccns1)c1nc(-c2ccnc(C(F)(F)F)c2)no1 [Compound I-22, (S)—N-(1-(3-(2-(trifluoromethyl)pyridin-4-yl)-1,2,4-oxadiazol-5-yl)ethyl)isothiazole-5-carboxamide] | 1000 to 20000 nM |
| C[C@H](NC(=O)C1CCC(F)(F)CC1)c1nc(-c2ccnc(C(F)(F)F)c2)no1 [Compound I-3, (S)-4,4-difluoro-N-(1-(3-(2-(trifluoromethyl)pyridin-4-yl)-1,2,4-oxadiazol-5-yl)ethyl)cyclohexane-1-carboxamide] | ≤ 1000 nM |
| C[C@H](NC(=O)[C@@H]1CCC(=O)N1)c1nc(-c2ccnc(C(F)(F)F)c2)no1 [Compound I-54, (S)-5-oxo-N—((S)-1-(3-(2-(trifluoromethyl)pyridin-4-yl)-1,2,4-oxadiazol-5-yl)ethyl)pyrrolidine-2-carboxamide] | ≥ 20000 nM |
| Cc1ncc(C(=O)NC(C)c2nc(-c3cccc(F)c3)no2)c(C)n1 (stereo not shown) [Compound I-48, N-[1-[3-(3-fluorophenyl)-1,2,4-oxadiazol-5-yl]ethyl]-2,4-dimethyl-pyrimidine-5-carboxamide] | ≥ 20000 nM |
| C[C@H](NC(=O)c1cccnc1)c1nc(-c2ccnc(C(F)(F)F)c2)no1 [Compound I-11, (S)—N-(1-(3-(2-(trifluoromethyl)pyridin-4-yl)-1,2,4-oxadiazol-5-yl)ethyl)nicotinamide] | 1000 to 20000 nM |
| CC(=O)N1CCC(C(=O)N[C@@H](C)c2nc(-c3ccnc(C(F)(F)F)c3)no2)CC1 [Compound I-73, 1-acetyl-N-[(1S)-1-[3-[2-(trifluoromethyl)-4-pyridyl]-1,2,4-oxadiazol-5-yl]ethyl]piperidine-4-carboxamide] | ≥ 20000 nM |

More lines, now with the values ahead:

| IC50 | Compound |
| --- | --- |
| ≤ 1000 nM | C[C@H](NC(=O)N1CCc2ccccc2C1)c1nc(-c2ccnc(C(F)(F)F)c2)no1 [II-11] |
| ≤ 1000 nM | C[C@H](NC(=O)c1ccnc(C(F)(F)F)c1)c1nc(-c2ccnc(C3CC3)c2)no1 [Compound I-96, (S)—N-(1-(3-(2-cyclopropylpyridin-4-yl)-1,2,4-oxadiazol-5-yl)ethyl)-2-(trifluoromethyl)isonicotinamide] |
| ≥ 20000 nM | CC(=O)N1CCCC(C(=O)N[C@@H](C)c2nc(-c3ccnc(C(F)(F)F)c3)no2)C1 (mixture of isomers) [Compound I-85, 1-acetyl-N-[(1S)-1-[3-[2-(trifluoromethyl)-4-pyridyl]-1,2,4-oxadiazol-5-yl]ethyl]piperidine-3-carboxamide] |
| ≤ 1000 nM | C[C@H](NC(=O)c1cccc(S(C)(=O)=O)c1)c1nc(-c2ccnc(C3CC3)c2)no1 [Compound I-92, (S)—N-(1-(3-(2-cyclopropylpyridin-4-yl)-1,2,4-oxadiazol-5-yl)ethyl)-3-(methylsulfonyl)benzamide] |
| ≤ 1000 nM | C[C@H](NC(=O)c1ccc(S(=O)(=O)C2CC2)s1)c1nc(-c2ccnc(C3CC3)c2)no1 [Compound I-97, (S)—N-(1-(3-(2-cyclopropylpyridin-4-yl)-1,2,4-oxadiazol-5-yl)ethyl)-5-(cyclopropylsulfonyl)thiophene-2-carboxamide] |
| 1000 to 20000 nM | C[C@H](NC(=O)c1cccc(C(N)=O)c1)c1nc(-c2ccnc(C3CC3)c2)no1 [Compound I-91, (S)—N-(1-(3-(2-cyclopropylpyridin-4-yl)-1,2,4-oxadiazol-5-yl)ethyl) isophthalamide] |
| ≤ 1000 nM | C[C@H](NC(=O)N(C)c1ccccc1)c1nc(-c2ccnc(C(F)(F)F)c2)no1 [II-12] |
| ≤ 1000 nM | C[C@H](NC(=O)C1CCCC1)c1nc(-c2ccnc(C3CC3)c2)no1 [Compound I-105, (S)—N-(1-(3-(2-cyclopropylpyridin-4-yl)-1,2,4-oxadiazol-5-yl)ethyl)cyclopentanecarboxamide] |
| ≤ 1000 nM | Cc1ccc(C(=O)N[C@@H](C)c2nc(-c3ccnc(C4CC4)c3)no2)cc1 [Compound I-87, (S)—N-(1-(3-(2-cyclopropylpyridin-4-yl)-1,2,4-oxadiazol-5-yl)ethyl)-4-methylbenzamide] |
